Two compounds from patent publication US20200100497A1, “SAFENERS AND FORMULATIONS CONTAINING SAFENERS, BIOCIDES AND INOCULANTS” (Bayer CropScience LP, priority 2017, published 2020) can be followed below.

Bounds are passed on as bounds.

Data set [1] can be described thus: Stability of CropStar formulation and thiodicarb in presence of sodium bisulfite, Example 1. The data set is classed as physicochemical. How it is done:
Sodium bisulfite was added to CropStar® (150 g/L imidacloprid+450 g/L thiodicarb; Bayer CropScience) in various mole ratios to formaldehyde (0.5:1, 1:1, 2:1, and 5:1) with or without pH adjustment to pH 7. Efficacy of sodium bisulfite was compared to no safener (Sample Nos. 1 & 5), two comparative safeners (Safener 1 & Safener 2), and inoculum only (BIAGRO Liquido NG—liquid inoculant and BIAGRO 10 Plus—peat-based inoculant). Safener 1 was obtained from Novozymes and contains the following active ingredients: soybean oil (CAS #8001-22-7), hydrolysed starch syrups (CAS #8029-43-4), and yeast extract (CAS #8013-01-2). Safener 2 was provided by Biagro and contains the following active ingredients: yeast extract, K2HPO4, and milk powder.

Data set [2] in a line: C-13 NMR stability of the formaldehyde/sodium bisulfite/N,N-dimethylamine adduct in aqueous solution. It is filed as physicochemical. The conditions noted are these: room temperature; for Conversion of N,N-dimethyl adduct back to formaldehyde bisulfite adduct: 18 days. How it is done: In a small vial, 137 mg of formaldehyde sodium bisulfite (CAS 870-72-4) was combined with 10 mL of high purity water and 200 mg of N,N-dimethylamine and stirred at room temperature to mix. The resulting mixture was stored at room temperature.
Aliquots of the mixture was analysed by C-13 NMR spectral analysis 48 hours and 18 days following formation.

Consider `O=S([O-])O.[Na+]` [sodium bisulfite], for which the Degradation of thiodicarb entry in data set [1] (1:1 mole ratio of sodium bisulfite to formaldehyde in CropStar) is recorded as “did not significantly degrade thiodicarb”. Moreover, in data set [1] (sodium bisulfite added to CropStar), the “Physical stability of the CropStar formulation” value is “without affecting the physical stability of the formulation”.
As for `CN(C)CS(=O)(=O)O` [N,N-dimethyl adduct (CAS 68507-34-6), 1-(dimethylamino)-methanesulfonic acid], in data set [2], the “Conversion of N,N-dimethyl adduct back to formaldehyde bisulfite adduct” value was “approximately 3.5%” and the “Time for which adduct is stable / takes to reverse back to formaldehyde bisulfite adduct” value is listed as greater than 18 days. In data set [2] (listed as N,N-dimethylamine product), the “Conversion of N,N-dimethyl adduct back to formaldehyde bisulfite adduct” value was found to be 3.5%.
